This is an account of results in PubChem BioAssay AID493146 (Sanford-Burnham Center for Chemical Genomics, 2011).

pEC50: −log10 of the molar value. Calls of active or inactive are those of the source. How the calls were made is not given here.

By EC50 is commonly meant the concentration that produces a half-maximal response. In general, pEC50 refers to the negative decadic logarithm of the EC50, by convention in mol/L.

This test deals with intestinal alkaline phosphatase (Alpi), Mus musculus. Briefly: murine Alpi activation by analogs – biochemical, luminescence, SAR follow-up (AID 493146). The conditions noted are these: purified mouse IAP, luminescent substrate.

As to `Cc1cc(=O)oc2cc(NC(=S)NCCC(c3ccccc3)c3ccccc3)ccc12`, the EC50 was > 100 µM (inactive).

With `CCOc1cccc(NC(=O)CSc2sc3c(O)cc(=O)[nH]c3c2C#N)c1`, the EC50 was > 100 µM (inactive).

For `N#Cc1c(SCC(=O)Nc2nccs2)sc2c(O)cc(=O)[nH]c12`, the EC50 was > 100 µM (inactive).

For the compound `O=[N+]([O-])c1ccc(NC(=S)NCCC(c2ccccc2)c2ccccc2)cc1`, the EC50 was > 100 µM (inactive).

In the case of `O=C(CN1C(=O)/C(=C/c2ccco2)SC1=S)Nc1cccc(C(=O)O)c1`, the EC50 was > 100 µM (inactive).

With `O=C(C1CCN(S(=O)(=O)c2ccc3[nH]c(=O)oc3c2)CC1)N1CC=C(c2ccccc2)CC1`, the EC50 was > 100 µM (inactive).

On to `Cc1ccc(NC(=O)CCNS(=O)(=O)c2ccc3[nH]c(=O)oc3c2)cc1N(C)C`, for which the EC50 is > 100 µM (inactive).

Regarding `O=C1/C(=C/c2ccco2)SC(=S)N1C1CCS(=O)(=O)C1` (configuration not stated), the EC50 is > 100 µM (inactive).

For `O=C(N/N=C/C1CC=CCC1)c1cc(O)c(O)c(O)c1` (configuration not stated), the EC50 is > 100 µM (inactive).

In the case of `COc1cc(C(=O)NNc2nc3cc4c(cc3s2)OCO4)cc(OC)c1OC`, the EC50 is > 100 µM (inactive).

In the case of `O=C(CN1C(=O)/C(=C/c2ccco2)SC1=S)Nc1ccc2nccnc2c1`, the EC50 was > 100 µM (inactive).

In the case of `COc1cc([N+](=O)[O-])ccc1NC(=S)NCCC(c1ccccc1)c1ccccc1`, the EC50 is > 100 µM (inactive).

`N#Cc1c(SCC(=O)Nc2nc3ccccc3s2)sc2c(O)cc(=O)[nH]c12`: the EC50 was > 100 µM (inactive).

In the case of `O=C(NCCc1ccc(Cl)cc1)C1CCCN(S(=O)(=O)c2ccc3[nH]c(=O)oc3c2)C1` (configuration not stated), the EC50 is > 100 µM (inactive).

`CCOc1ccccc1NC(=O)CCNS(=O)(=O)c1ccc2[nH]c(=O)oc2c1`: the EC50 is > 100 µM (inactive).

For `O=C(CN1C(=O)/C(=C/c2ccco2)SC1=S)NC1C=CS(=O)(=O)C1` (configuration not stated), the EC50 was > 100 µM (inactive).

Regarding `CC(C)N1CCC(=NNC(=O)c2cc(O)c(O)c(O)c2)CC1`, the EC50 was > 100 µM (inactive).

As to `Cc1ccc(NC(=O)CSc2sc3c(O)cc(=O)[nH]c3c2C#N)c(F)c1`, the EC50 was > 100 µM (inactive).

On to `C/C(=N\NC(=O)c1cc(O)c(O)c(O)c1)c1ccncc1`, for which the EC50 was > 100 µM (inactive).

Turning to `O=C(CCCN1C(=O)/C(=C\c2ccco2)SC1=S)Nc1ccc(O)cc1C(=O)O`, the EC50 was > 100 µM (inactive).

For `COc1ccc(NC(=O)C(CC(C)C)NS(=O)(=O)c2ccc3[nH]c(=O)oc3c2)cc1` (configuration not stated), the EC50 is > 100 µM (inactive).

Turning to `CC(C)C(C(=O)NC1CCS(=O)(=O)C1)N1C(=O)/C(=C\c2ccco2)SC1=S` (configuration not stated), the EC50 was > 100 µM (inactive).

Consider `COc1cc(C(=O)NNC(=S)NC(=O)c2ccccc2C)cc(OC)c1OC`, for which the EC50 is > 100 µM (inactive).

Consider `COc1ccc(CNC(=O)CSc2sc3c(O)cc(=O)[nH]c3c2C#N)cc1`, for which the EC50 is > 100 µM (inactive).

Regarding `COc1cc(C(=O)NNC(=O)c2n[nH]c3ccccc23)cc(OC)c1OC`, the EC50 was > 100 µM (inactive).

For `COc1ccc(NC(=S)NCCC(c2ccccc2)c2ccccc2)cc1`, the pEC50 is 4.42.

`COc1ccc(Cl)cc1NC(=O)CSc1sc2c(O)cc(=O)[nH]c2c1C#N`: the EC50 is > 100 µM (inactive).

With `O=C(c1ccco1)N1CCN(S(=O)(=O)c2ccc3[nH]c(=O)oc3c2)CC1`, the EC50 is > 100 µM (inactive).

Consider `CCN(CC)C(=O)CSc1sc2c(O)cc(=O)[nH]c2c1C#N`, for which the EC50 is > 100 µM (inactive).

Consider `N#Cc1c(SCC(=O)Nc2nc3ccc(Br)cc3s2)sc2c(O)cc(=O)[nH]c12`, for which the EC50 is > 100 µM (inactive).

For `CC(C)c1ccc(NC(=O)CCNS(=O)(=O)c2ccc3[nH]c(=O)oc3c2)cc1`, the EC50 was > 100 µM (inactive).

In the case of `CCOC(=O)NC(=O)CSc1sc2c(O)cc(=O)[nH]c2c1C#N`, the EC50 was > 100 µM (inactive).

With `CCOC(=O)N1CCC(NC(=O)CSc2sc3c(O)cc(=O)[nH]c3c2C#N)CC1`, the EC50 was > 100 µM (inactive).

Consider `CCCSc1nnc(NC(=O)CSc2sc3c(O)cc(=O)[nH]c3c2C#N)s1`, for which the EC50 is > 100 µM (inactive).

In the case of `COc1cc(C(=O)NN=Cc2ccccn2)cc(OC)c1OC`, the EC50 is > 100 µM (inactive).

For `O=C(NN=Cc1cccnc1)c1cc(O)c(O)c(O)c1`, the EC50 was > 100 µM (inactive).

Turning to `NS(=O)(=O)c1ccc(-c2ccc(/C=C3\SC(=S)N(C4CCS(=O)(=O)C4)C3=O)o2)cc1` (configuration not stated), the EC50 was > 100 µM (inactive).

Turning to `CCc1nnc(NC(=O)CSc2sc3c(O)cc(=O)[nH]c3c2C#N)s1`, the EC50 is > 100 µM (inactive).

For `O=C(CN1C(=O)/C(=C\c2ccco2)SC1=S)Nc1ccc(O)cc1C(=O)O`, the EC50 was > 100 µM (inactive).

With `O=C(CN1C(=O)/C(=C/c2ccco2)SC1=S)NCCc1ccc(O)cc1`, the EC50 is > 100 µM (inactive).

Take `COc1ccc(CNC(=O)CSc2sc3c(O)cc(=O)[nH]c3c2C#N)cc1OC`: the EC50 is > 100 µM (inactive).

Regarding `N#Cc1c(SCC(=O)Nc2ccccc2C(F)(F)F)sc2c(O)cc(=O)[nH]c12`, the EC50 is > 100 µM (inactive).

Consider `FC(F)(F)c1cccc(NC(=S)NCCC(c2ccccc2)c2ccccc2)c1`, for which the pEC50 was 4.08.

On to `CC(C)NC(=O)CSc1sc2c(O)cc(=O)[nH]c2c1C#N`, for which the EC50 is > 100 µM (inactive).

`COc1cc(C(=O)NNC(=S)NC(=O)c2ccc(Cl)cc2)cc(OC)c1OC`: the EC50 is > 100 µM (inactive).

Take `Cc1csc(NC(=O)CSc2sc3c(O)cc(=O)[nH]c3c2C#N)n1`: the EC50 was > 100 µM (inactive).

Regarding `O=C(CN1C(=O)/C(=C/c2ccco2)SC1=S)N[C@@H]1CSC[C@@H]1O`, the EC50 was > 100 µM (inactive).

With `O=C(N/N=C/c1ccco1)c1cc(O)c(O)c(O)c1`, the EC50 was > 100 µM (inactive).

`N#Cc1c(SCC(=O)NCc2ccc3c(c2)OCO3)sc2c(O)cc(=O)[nH]c12`: the EC50 was > 100 µM (inactive).

For the compound `COc1cccc(CNC(=O)CCNS(=O)(=O)c2ccc3[nH]c(=O)oc3c2)c1`, the EC50 was > 100 µM (inactive).

As to `O=C(CN1C(=O)/C(=C\c2ccco2)SC1=S)Nc1ccccc1C(=O)O`, the EC50 was > 100 µM (inactive).

Turning to `COc1ccccc1NC(=O)CSc1sc2c(O)cc(=O)[nH]c2c1C#N`, the EC50 is > 100 µM (inactive).

On to `O=C(CN1C(=O)/C(=C/c2ccco2)SC1=S)Nc1ccc(C(=O)O)cc1`, for which the EC50 is > 100 µM (inactive).

With `CCc1ccc(NC(=O)CN(C)S(=O)(=O)c2ccc3[nH]c(=O)oc3c2)cc1`, the EC50 is > 100 µM (inactive).

In the case of `COc1cc(Cl)c(C)cc1NC(=O)CSc1sc2c(O)cc(=O)[nH]c2c1C#N`, the EC50 is > 100 µM (inactive).

As for `COc1cc(C(=O)NNC(=O)C2CC2)cc(OC)c1OC`, the EC50 was > 100 µM (inactive).

For `O=C(CN1C(=O)/C(=C\c2ccco2)SC1=S)Nc1cccc(C(=O)O)c1`, the EC50 was > 100 µM (inactive).

As for `COc1cccc(NC(=O)CN(C)S(=O)(=O)c2ccc3[nH]c(=O)oc3c2)c1`, the EC50 was > 100 µM (inactive).

In the case of `N#Cc1c(SCC(=O)Nc2ccc(C(F)(F)F)cc2)sc2c(O)cc(=O)[nH]c12`, the EC50 was > 100 µM (inactive).

In the case of `CCOc1ccccc1CNC(=O)CCNS(=O)(=O)c1ccc2[nH]c(=O)oc2c1`, the EC50 was > 100 µM (inactive).

Consider `CCOc1ccc2nc(NC(=O)CN(C)S(=O)(=O)c3ccc4[nH]c(=O)oc4c3)sc2c1`, for which the EC50 is > 100 µM (inactive).

`COc1cccc(/C=N/NC(=O)c2cc(O)c(O)c(O)c2)c1`: the EC50 is > 100 µM (inactive).

In the case of `CN1CCC(=NNC(=O)c2cc(O)c(O)c(O)c2)CC1`, the EC50 was > 100 µM (inactive).

As for `O=C(CN1C(=O)/C(=C\c2ccco2)SC1=S)Nc1ccc(C(=O)O)cc1`, the EC50 is > 100 µM (inactive).

On to `O=C(N/N=C/C1CC2CCC1C2)c1cc(O)c(O)c(O)c1` (configuration not stated), for which the EC50 is > 100 µM (inactive).

For the compound `CC(C(=O)Nc1ccc(C(=O)O)c(O)c1)N1C(=O)/C(=C\c2ccco2)SC1=S` (configuration not stated), the EC50 is > 100 µM (inactive).

Turning to `Cc1ccc(/C=C2\SC(=S)N(C3CCS(=O)(=O)C3)C2=O)o1` (configuration not stated), the EC50 was > 100 µM (inactive).

`CC(C(=O)Nc1ccccc1C(=O)O)N1C(=O)/C(=C\c2ccco2)SC1=S` (configuration not stated): the EC50 is > 100 µM (inactive).

As to `O=C(NNC(=O)c1cc(O)c(O)c(O)c1)NC1CCCCC1`, the EC50 is > 100 µM (inactive).

For `CCN(C(=O)CN1C(=O)/C(=C\c2ccco2)SC1=S)C1CCS(=O)(=O)C1` (configuration not stated), the EC50 was > 100 µM (inactive).

On to `Cc1ccc(NC(=O)CCNS(=O)(=O)c2ccc3[nH]c(=O)oc3c2)cc1F`, for which the EC50 is > 100 µM (inactive).

Regarding `COc1ccccc1CNC(=O)CCNS(=O)(=O)c1ccc2[nH]c(=O)oc2c1`, the EC50 is > 100 µM (inactive).

For the compound `N#Cc1cccc(NC(=O)CSc2sc3c(O)cc(=O)[nH]c3c2C#N)c1`, the EC50 was > 100 µM (inactive).

As for `CC(C(=O)Nc1ccc(C(=O)O)cc1)N1C(=O)/C(=C\c2ccco2)SC1=S` (configuration not stated), the EC50 is > 100 µM (inactive).

For the compound `COc1ccc(NC(=O)CCNS(=O)(=O)c2ccc3[nH]c(=O)oc3c2)cc1Cl`, the EC50 was > 100 µM (inactive).

As to `O=C(CN1C(=O)/C(=C/c2ccco2)SC1=S)Nc1ccc(O)c(C(=O)O)c1`, the EC50 was > 100 µM (inactive).

Consider `Cc1ccc(Cl)cc1NC(=O)CSc1sc2c(O)cc(=O)[nH]c2c1C#N`, for which the EC50 was > 100 µM (inactive).

For `O=C(CCN1C(=O)/C(=C/c2ccco2)SC1=S)Nc1ccc(O)cc1C(=O)O`, the EC50 is > 100 µM (inactive).

As to `N#Cc1c(SCC(=O)Nc2cccc(F)c2)sc2c(O)cc(=O)[nH]c12`, the EC50 was > 100 µM (inactive).

On to `Cc1ccc(C)c(NC(=O)CCNS(=O)(=O)c2ccc3[nH]c(=O)oc3c2)c1`, for which the EC50 was > 100 µM (inactive).

Consider `COC(=O)c1ccc(C)c(NC(=O)CSc2sc3c(O)cc(=O)[nH]c3c2C#N)c1`, for which the EC50 is > 100 µM (inactive).

On to `CC(C(=O)NCCc1ccc(O)cc1)N1C(=O)/C(=C/c2ccco2)SC1=S` (configuration not stated), for which the EC50 is > 100 µM (inactive).
